PubChem BioAssay AID1259407 (Chemical Carcinogenesis Research Information System (CCRIS), 2018)
Activity calls are given as the source filed them. No rule for the calls is given here.

Test system: CCRIS mutagenicity, Ames/micronucleus/aberration tests
Test: CCRIS mutagenicity studies
[1] = Test System: AMES SALMONELLA TYPHIMURIUM, Strain/Indicator: TA98, Metabolic Activation: NONE, Method: PREINCUBATION
[2] = Test System: AMES SALMONELLA TYPHIMURIUM, Strain/Indicator: TA100, Metabolic Activation: NONE, Method: PREINCUBATION
[3] = Test System: AMES SALMONELLA TYPHIMURIUM, Strain/Indicator: TA100, Metabolic Activation: NONE, Method: STANDARD PLATE
[4] = Test System: AMES SALMONELLA TYPHIMURIUM, Strain/Indicator: TA98, Metabolic Activation: NONE, Method: STANDARD PLATE
[5] = Test System: AMES SALMONELLA TYPHIMURIUM, Strain/Indicator: TA98, Metabolic Activation: RAT, LIVER, S-9, AROCLOR 1254, Method: STANDARD PLATE
[6] = Test System: AMES SALMONELLA TYPHIMURIUM, Strain/Indicator: TA100, Metabolic Activation: RAT, LIVER, S-9, AROCLOR 1254, Method: STANDARD PLATE

O=[N+]([O-])c1ccc(CNc2ncnc3nc[nH]c23)cc1
mutagenic call (Test System: AMES SALMONELLA TYPHIMURIUM, Strain/Indicator: TA98(1,8-DNP), Metabolic Activation: NONE, Method: PREINCUBATION): inactive; negative | mutagenic call (Test System: AMES SALMONELLA TYPHIMURIUM, Strain/Indicator: TA98(1,8-DNP), Metabolic Activation: RAT, LIVER, S-9, PCB, Method: PREINCUBATION): inactive; negative | mutagenic call (Test System: AMES SALMONELLA TYPHIMURIUM, Strain/Indicator: TA98(NR), Metabolic Activation: NONE, Method: PREINCUBATION): inactive; negative | mutagenic call (Test System: AMES SALMONELLA TYPHIMURIUM, Strain/Indicator: TA98(NR), Metabolic Activation: RAT, LIVER, S-9, PCB, Method: PREINCUBATION): inactive; negative | mutagenic call [1]: inactive; negative | mutagenic call (Test System: AMES SALMONELLA TYPHIMURIUM, Strain/Indicator: TA98, Metabolic Activation: RAT, LIVER, S-9, PCB, Method: PREINCUBATION): inactive; negative | mutagenic call (Test System: AMES SALMONELLA TYPHIMURIUM, Strain/Indicator: TA100(1,8-DNP), Metabolic Activation: NONE, Method: PREINCUBATION): inactive; negative | mutagenic call (Test System: AMES SALMONELLA TYPHIMURIUM, Strain/Indicator: TA100(1,8-DNP), Metabolic Activation: RAT, LIVER, S-9, PCB, Method: PREINCUBATION): inactive; negative | mutagenic call (Test System: AMES SALMONELLA TYPHIMURIUM, Strain/Indicator: TA100(NR), Metabolic Activation: NONE, Method: PREINCUBATION): inactive; negative | mutagenic call (Test System: AMES SALMONELLA TYPHIMURIUM, Strain/Indicator: TA100(NR), Metabolic Activation: RAT, LIVER, S-9, PCB, Method: PREINCUBATION): inactive; negative | mutagenic call [2]: inactive; negative | mutagenic call (Test System: AMES SALMONELLA TYPHIMURIUM, Strain/Indicator: TA100, Metabolic Activation: RAT, LIVER, S-9, PCB, Method: PREINCUBATION): inactive; negative | mutagenic call (Test System: AMES SALMONELLA TYPHIMURIUM, Strain/Indicator: YG1020, Metabolic Activation: NONE, Method: PREINCUBATION): inactive; negative | mutagenic call (Test System: AMES SALMONELLA TYPHIMURIUM, Strain/Indicator: YG1020, Metabolic Activation: RAT, LIVER, S-9, PCB, Method: PREINCUBATION): inactive; negative | mutagenic call (Test System: AMES SALMONELLA TYPHIMURIUM, Strain/Indicator: YG1021, Metabolic Activation: NONE, Method: PREINCUBATION): inactive; negative | mutagenic call (Test System: AMES SALMONELLA TYPHIMURIUM, Strain/Indicator: YG1021, Metabolic Activation: RAT, LIVER, S-9, PCB, Method: PREINCUBATION): active; positive | mutagenic call (Test System: AMES SALMONELLA TYPHIMURIUM, Strain/Indicator: YG1024, Metabolic Activation: NONE, Method: PREINCUBATION): active; positive | mutagenic call (Test System: AMES SALMONELLA TYPHIMURIUM, Strain/Indicator: YG1024, Metabolic Activation: RAT, LIVER, S-9, PCB, Method: PREINCUBATION): inactive; negative | mutagenic call (Test System: AMES SALMONELLA TYPHIMURIUM, Strain/Indicator: YG1025, Metabolic Activation: NONE, Method: PREINCUBATION): inactive; negative | mutagenic call (Test System: AMES SALMONELLA TYPHIMURIUM, Strain/Indicator: YG1025, Metabolic Activation: RAT, LIVER, S-9, PCB, Method: PREINCUBATION): inactive; negative | mutagenic call (Test System: AMES SALMONELLA TYPHIMURIUM, Strain/Indicator: YG1026, Metabolic Activation: NONE, Method: PREINCUBATION): inactive; negative | mutagenic call (Test System: AMES SALMONELLA TYPHIMURIUM, Strain/Indicator: YG1026, Metabolic Activation: RAT, LIVER, S-9, PCB, Method: PREINCUBATION): inactive; negative | mutagenic call (Test System: AMES SALMONELLA TYPHIMURIUM, Strain/Indicator: YG1029, Metabolic Activation: NONE, Method: PREINCUBATION): inactive; negative | mutagenic call (Test System: AMES SALMONELLA TYPHIMURIUM, Strain/Indicator: YG1029, Metabolic Activation: RAT, LIVER, S-9, PCB, Method: PREINCUBATION): inactive; negative

Cc1cccc(O)c1C
mutagenic call [1]: inactive; negative | mutagenic call (Test System: AMES SALMONELLA TYPHIMURIUM, Strain/Indicator: TA98, Metabolic Activation: RAT LIVER S-9, PHENOBARBITAL AND BETA-NAPHTHOFLAVONE, Method: PREINCUBATION): inactive; negative | mutagenic call [2]: inactive; negative | mutagenic call (Test System: AMES SALMONELLA TYPHIMURIUM, Strain/Indicator: TA100, Metabolic Activation: RAT LIVER S-9, PHENOBARBITAL AND BETA-NAPHTHOFLAVONE, Method: PREINCUBATION): inactive; negative | mutagenic call (Test System: AMES SALMONELLA TYPHIMURIUM, Strain/Indicator: TA1535, Metabolic Activation: NONE, Method: PREINCUBATION): inactive; negative | mutagenic call (Test System: AMES SALMONELLA TYPHIMURIUM, Strain/Indicator: TA1535, Metabolic Activation: RAT LIVER S-9, PHENOBARBITAL AND BETA-NAPHTHOFLAVONE, Method: PREINCUBATION): inactive; negative | mutagenic call (Test System: AMES SALMONELLA TYPHIMURIUM, Strain/Indicator: TA1537, Metabolic Activation: NONE, Method: PREINCUBATION): inactive; negative | mutagenic call (Test System: AMES SALMONELLA TYPHIMURIUM, Strain/Indicator: TA1537, Metabolic Activation: RAT LIVER S-9, PHENOBARBITAL AND BETA-NAPHTHOFLAVONE, Method: PREINCUBATION): inactive; negative | mutagenic call (Test System: AMES SALMONELLA TYPHIMURIUM, Strain/Indicator: TA1538, Metabolic Activation: NONE, Method: PREINCUBATION): inactive; negative | mutagenic call (Test System: AMES SALMONELLA TYPHIMURIUM, Strain/Indicator: TA1538, Metabolic Activation: RAT LIVER S-9, PHENOBARBITAL AND BETA-NAPHTHOFLAVONE, Method: PREINCUBATION): inactive; negative | mutagenic call (Test System: E.COLI, Strain/Indicator: WP2UVRA, Metabolic Activation: NONE, Method: PREINCUBATION): inactive; negative | mutagenic call (Test System: E.COLI, Strain/Indicator: WP2UVRA, Metabolic Activation: RAT LIVER S-9, PHENOBARBITAL AND BETA-NAPHTHOFLAVONE, Method: PREINCUBATION): inactive; negative

O=c1c(O)c2c(c3c1ccc1[nH]cccc13)O2
mutagenic call [3]: inactive; negative

Nc1ccc2nc3ccccn3c2n1
mutagenic call (Test System: AMES SALMONELLA TYPHIMURIUM, Strain/Indicator: TA97, Metabolic Activation: NONE, Method: STANDARD PLATE): inactive; negative | mutagenic call (Test System: AMES SALMONELLA TYPHIMURIUM, Strain/Indicator: TA97, Metabolic Activation: RAT, LIVER, S-9, AROCLOR 1254, Method: STANDARD PLATE): active; positive | mutagenic call (Test System: AMES SALMONELLA TYPHIMURIUM, Strain/Indicator: TA98, Metabolic Activation: MONKEY, LIVER, S-9, Method: PREINCUBATION): active; positive | mutagenic call (Test System: AMES SALMONELLA TYPHIMURIUM, Strain/Indicator: TA98, Metabolic Activation: MOUSE, LIVER, MICROSOMES, TCDD, Method: STANDARD PLATE): active; positive | mutagenic call (Test System: AMES SALMONELLA TYPHIMURIUM, Strain/Indicator: TA98, Metabolic Activation: MOUSE, LIVER, MICROSOMES, Method: STANDARD PLATE): inactive; negative | mutagenic call [4]: inactive; negative | mutagenic call (Test System: AMES SALMONELLA TYPHIMURIUM, Strain/Indicator: TA98, Metabolic Activation: RAT, LIVER, CYTOSOL, AROCLOR 1254, Method: STANDARD PLATE): inactive; negative | mutagenic call (Test System: AMES SALMONELLA TYPHIMURIUM, Strain/Indicator: TA98, Metabolic Activation: RAT, LIVER, MICROSOMES, AROCLOR 1254, Method: STANDARD PLATE): inactive; negative | mutagenic call (Test System: AMES SALMONELLA TYPHIMURIUM, Strain/Indicator: TA98, Metabolic Activation: RAT, LIVER, S-9, AROCLOR 1254, Method: PREINCUBATION): active; positive | mutagenic call [5]: active; positive | mutagenic call [3]: inactive; negative | mutagenic call (Test System: AMES SALMONELLA TYPHIMURIUM, Strain/Indicator: TA100, Metabolic Activation: RAT, LIVER, S-9, AROCLOR 1254, Method: PREINCUBATION): active; positive | mutagenic call [6]: active; positive | mutagenic call (Test System: AMES SALMONELLA TYPHIMURIUM, Strain/Indicator: TA100, Metabolic Activation: RAT, LIVER, S-9, N-BENZYLIMIDAZOLE, Method: PREINCUBATION): active; positive | mutagenic call (Test System: AMES SALMONELLA TYPHIMURIUM, Strain/Indicator: YG1019, Metabolic Activation: RAT LIVER S-9, AROCLOR, Method: PREINCUBATION): active; positive

COc1ccc([C@H]2O[C@H]2C(=O)c2ccccc2)cc1
mutagenic call [4]: inactive; negative | mutagenic call [5]: inactive; negative | mutagenic call [3]: active; positive | mutagenic call [6]: active; positive
